Here are results for twelve compounds from publication doi:10.1101/2024.02.15.580468v1, “Morphing Cholinesterase Inhibitor Amiridine into Multipotent Drugs for the Treatment of Alzheimer’s Disease” (biorxiv, 2024).

Data set [1] has as its target T1, hAChE (human recombinant acetylcholinesterase) (Homo sapiens, UniProt P22303).
T1 construct: gene ACHE; recombinant enzyme, purchased from Sigma-Aldrich
The data set is described as follows: biochemical. The arrangement: modified Ellman assay, cholinesterase activity, absorbance at 412 nm. On the procedure:
(§1) The inhibitory activities of 5–7 and all the reference compounds were determined using modified Ellman’s method against human recombinant AChE (hAChE, E.C. 3.1.1.7, purchased from Sigma-Aldrich, Prague, Czech Republic) and human plasmatic BChE (hBChE, E.C. 3.1.1.8, purchased from Sigma-Aldrich, Prague, Czech Republic). The results are expressed as IC50 (the concentration of the compound that is required to reduce 50% of cholinesterase activity). Other used compounds – phosphate buffer solution (PBS, pH = 7.4), 5,5’-dithio-bis(2-nitrobenzoic) acid (Ellman’s reagent, DTNB), acetylthiocholine (ATCh) and butyrylthiocholine (BTCh) were also commercially available and were purchased from Sigma-Aldrich (Prague, Czech Republic). During the measurement, 96-well microplates from polystyrene (ThermoFisher Scientific, Waltham, MA, USA) were used. The solutions of corresponding enzyme in PBS were prepared up to final activity 0.002 U/µL. The assay medium (100 µL) consisted of cholinesterase (10 µL), DTNB (20 µL of 0.01 M solution) and PBS (40 µL of 0.1 M solution). The solutions of the tested compounds (10 µL of different concentrations) were pre- incubated for 5 minutes in the assay medium and then solution of substrate (20 µL of 0.01 M ATCh or BTCh iodide solution) was added to initiate the reaction. The increase of absorbance was measured at 412 nm using Multimode microplate reader Synergy 2 (BioTek Inc., Winooski, VT, USA). For the calculation of the resulting measured activity (the percentage of inhibition I) following formula was used: [drawing 1] where ΔAi indicates absorbance change provided by adequate enzyme exposed to corresponding inhibitor and ΔA0 indicates absorbance change when a solution of PBS was added instead of a solution of inhibitor. Software Microsoft Excel (Redmont, WA, USA) and GraphPad Prism version 5.02 for Windows (GraphPad Software, San Diego, CA, USA) were used for the statistical data evaluation. ChEs are enzymes responsible for the hydrolysis and metabolism of various endogenous and exogenous substrates, that are broadly studied in association with disease conditions like myasthenia gravis or AD. The primary attention in the development of AD drugs has been paid to AChE inhibitors. Nevertheless, there is growing interest in nonselective or BChE-selective inhibitors due to the compensatory role of BChE when AChE levels are depleted during the progression of AD [23]. Selective BChE inhibitors may be beneficial for patients in moderate-to-severe stages of AD [23, 24]. […] Accordingly, we assessed the inhibition activities of these novel compounds against human recombinant AChE (hAChE) and human serum BChE (hBChE) following a modified spectrophotometric protocol developed by Ellman et al.. […] Complete data are available in the Supplementary Information (Table S1), including the inhibition percentages for all derivatives. Amiridine hydrochloride (amiridine.HCl) and tacrine (THA) were used as reference compounds. […] Only a superficial structure-activity relationship for AChE inhibition can be drawn from the obtained data. […] The presence of any substituent on the benzothiazole core enhanced anti-AChE activity, with the best-tolerated position for the substituent being 6 for derivatives with halogen atoms (7b-d with bromine or 7g-h with [compound left out]. h

For data set [2], the target named is T2, hBChE (human serum / plasmatic butyrylcholinesterase) (Homo sapiens, UniProt P06276).
T2 construct: gene BCHE; native enzyme from human plasma/serum, purchased from Sigma-Aldrich
T2 sequence (P06276 29-602): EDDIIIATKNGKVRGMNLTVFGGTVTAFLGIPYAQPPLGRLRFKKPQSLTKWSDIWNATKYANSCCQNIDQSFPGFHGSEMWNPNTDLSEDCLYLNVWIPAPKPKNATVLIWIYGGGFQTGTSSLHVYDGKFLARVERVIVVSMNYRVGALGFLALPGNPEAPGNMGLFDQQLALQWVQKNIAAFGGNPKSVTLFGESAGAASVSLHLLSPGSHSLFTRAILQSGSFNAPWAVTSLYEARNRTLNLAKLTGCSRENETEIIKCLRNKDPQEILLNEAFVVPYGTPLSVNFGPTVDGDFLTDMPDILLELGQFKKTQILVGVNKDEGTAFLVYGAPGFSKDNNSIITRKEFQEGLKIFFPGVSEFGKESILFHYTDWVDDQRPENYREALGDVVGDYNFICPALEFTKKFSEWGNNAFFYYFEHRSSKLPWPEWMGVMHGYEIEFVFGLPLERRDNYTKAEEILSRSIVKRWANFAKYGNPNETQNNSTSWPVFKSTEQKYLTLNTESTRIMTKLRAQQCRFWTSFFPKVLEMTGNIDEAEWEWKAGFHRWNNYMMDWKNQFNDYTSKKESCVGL
The data set is described as follows: biochemical. Details: modified Ellman assay, cholinesterase activity, absorbance at 412 nm. On the procedure: as §1

A short description of data set [3]: in vitro. Details: MTT viability assay, undifferentiated SH-SY5Y cells. Conditions: human, undifferentiated sh-sy5y cells, read-out: SH-SY5Y IC50. Here is the method: (§2) The cytotoxic profile of 5–7 was carried through the use of the MTT (3-(4,5-dimethylthiazol-2-yl)-2,5-diphenyltetrazolium bromide) assay on human neuroblastoma (SH-SY5Y) and hepatocellular carcinoma (HepG2) cell lines, following established protocols. The cytotoxicity was assessed on SH-SY5Y cells in undifferentiated and in differentiated form. The data obtained from the measurements on the undifferentiated SH-SY5Y and HepG2 cells are summarized in Table 1 for 5c-d, 7c and 7g, as well as for the reference compounds amiridine hydrochloride and THA. Additional data can be found in Supplementary Information (Table S2 and Fig. S1). The both cell lines were cultured according to ECACC recommended conditions and seeded into 96-well plates in 100 µL and density of 8000 per well. For evaluation of cytotoxicity of the differentiated form the SH-SY5Y cells also underwent 9-day differentiation protocol into mature neurons according to Riegerová et al .. The tested compounds were dissolved in DMSO (Sigma Aldrich) or in phosphate buffer saline (PBS, Sigma Aldrich) and subsequently in the growth medium - high glucose Dulbecco’s Modified Eagle’s medium (DMEM; Sigma-Aldrich, D6429). […] Then, the differentiated SH-SY5Y cells were treated with concentrations corresponding to IC50 values obtained from the cytotoxicity measurement using undifferentiated SH-SY5Y cells. Cells were exposed to a tested compound for 24 h. Then the medium was replaced by a medium containing 10 μM of MTT and cells were allowed to produce formazan for another approximately 3 h under surveillance. Thereafter, medium was aspirated and purple crystals of MTT formazan were dissolved in 100 μL DMSO under shaking. Cell viability was assessed spectrophotometrically by the amount of formazan produced. Absorbance was measured at 570 nm with 650 nm reference wavelength on Spark (Tecan Group Ltd, Switzerland). The IC50 value was then calculated from the control-subtracted triplicates using non-linear regression (four parameters) of GraphPad Prism 9 software. Final IC50 and SEM values were obtained as a mean of three independent measurements.

Data set [4] is described as follows: in vitro. The arrangement: PAMPA blood-brain barrier permeability, effective permeability Pe. To be noted: PAMPA-BBB Pe. From the text: page 5 / Table S2. Cytotoxicity profiles of 5–7 on SH-SY5Y cell line and predictions to BBB penetration by PAMPA results. / Pe (10^-6 cm.s^-1)
Background: PAMPA measures passive passage across an artificial lipid membrane.

A short description of data set [5]: in vitro. To be noted: human, hepg2 cells; read-out: HepG2 IC50. Details: MTT viability assay, HepG2 cells. Here is the method: as §2
In data set [6] the target is T2, hBChE (human serum / plasmatic butyrylcholinesterase). The data set is described as follows: modified Ellman assay, […] nm. In kind it is biochemical.

Like-named read-outs stand apart in the source and are kept apart here.

T1 sequence (P22303 32-614): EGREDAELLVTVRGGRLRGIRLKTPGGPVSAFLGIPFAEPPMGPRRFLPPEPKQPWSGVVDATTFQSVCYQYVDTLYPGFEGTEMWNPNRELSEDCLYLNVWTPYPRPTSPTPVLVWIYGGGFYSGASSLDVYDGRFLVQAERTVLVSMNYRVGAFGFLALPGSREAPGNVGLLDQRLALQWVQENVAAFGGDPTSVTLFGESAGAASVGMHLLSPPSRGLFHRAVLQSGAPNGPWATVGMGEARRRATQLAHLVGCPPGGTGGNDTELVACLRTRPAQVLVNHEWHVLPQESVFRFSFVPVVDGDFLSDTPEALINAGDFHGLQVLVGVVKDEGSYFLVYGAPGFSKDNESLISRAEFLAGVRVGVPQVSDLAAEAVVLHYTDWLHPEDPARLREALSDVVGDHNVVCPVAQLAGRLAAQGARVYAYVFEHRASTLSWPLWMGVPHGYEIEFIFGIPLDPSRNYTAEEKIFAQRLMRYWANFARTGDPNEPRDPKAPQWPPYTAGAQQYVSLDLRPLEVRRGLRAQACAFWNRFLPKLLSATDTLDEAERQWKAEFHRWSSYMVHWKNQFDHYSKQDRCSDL

As for `N#Cc1ccc2sc(NCC(=O)Nc3c4c(nc5c3CCC5)CCCC4)nc2c1` [7e, 2-[(5-cyano-1,3-benzothiazol-2-yl)amino]-N-{1H,2H,3H,5H,6H,7H,8H-cyclopenta[b]quinolin-9-yl}acetamide], the inhibition (commonly the relative decrease from the control value, in per cent) at 1 µM in data set [1] was determined as 13.3 ± 0.57%; in data set [2], 13.9 ± 0.6%. Moreover, the CC50 at 24 h in data set [3] is 77.4 ± 4.54 µM; in data set [5], 26.4 ± 1.82 µM. For the same compound, the Papp (commonly a coefficient for how fast a substance crosses the barrier) in data set [4] is 13.9 ± 1.26 ×10⁻⁶ cm/s.

For `O=C(CNc1nc2ccc([N+](=O)[O-])cc2s1)Nc1c2c(nc3c1CCC3)CCCC2` [7i, N-{1H,2H,3H,5H,6H,7H,8H-cyclopenta[b]quinolin-9-yl}-2-[(6-nitro-1,3-benzothiazol-2-yl)amino]acetamide], the inhibition at 1 µM in data set [1] stood at 7.98 ± 0.99%; in data set [2], 0.93 ± 0.08%. The CC50 at 24 h in data set [3] was 91.3 ± 11 µM; in data set [5], at least 200 µM. For the same compound, in data set [4], the Papp turned out to be 4.89 ± 1.5 ×10⁻⁶ cm/s.

As to `O=C(CNc1nc2cc([N+](=O)[O-])ccc2s1)Nc1c2c(nc3c1CCC3)CCCC2` [7j, N-{1H,2H,3H,5H,6H,7H,8H-cyclopenta[b]quinolin-9-yl}-2-[(5-nitro-1,3-benzothiazol-2-yl)amino]acetamide], the inhibition at 1 µM in data set [1] turned out to be 8.2 ± 0.41%; in data set [2], 8.03 ± 1.37%. Also, the results for the CC50 at 24 h in data set [3] and in data set [5] were 93.7 ± 5.38 µM and 25.83 ± 0.25 µM, respectively. This compound also showed a Papp in data set [4] of 1.83 ± 0.54 ×10⁻⁶ cm/s.

As to `Cc1c(C)c2c(c(C)c1O)CCC(C)(C(=O)NCC(=O)Nc1c3c(nc4c1CCC4)CCCC3)O2` (stereo not shown) [compound 6, N-{1H,2H,3H,5H,6H,7H,8H-cyclopenta[b]quinolin-9-yl}-2-[(6-hydroxy-2,5,7,8-tetramethyl-3,4-dihydro-2H-1-benzopyran-2-yl)formamido]acetamide], the inhibition at 1 µM in data set [1] is 3.95 ± 0.25%; in data set [2], 21.5 ± 0.94%. Besides, the CC50 at 24 h in data set [3] was at least 200 µM. Moreover, the Papp in data set [4] was found to be 15.9 ± 0.38 ×10⁻⁶ cm/s.

Turning to `Clc1nc2ccccc2s1` [7a, 2-chlorobenzothiazole], the inhibition at 1 µM was 1.46 ± 0.17% in data set [1] and 7.19 ± 0.91% in data set [2]. Also, the figures for the CC50 at 24 h in data set [3] and in data set [5] were 72.3 ± 6.89 µM and at least 200 µM, respectively. Moreover, the Papp in data set [4] is 20.6 ± 0.44 ×10⁻⁶ cm/s.

For `CC12CC3CC(C)(C1)CC(NCC(=O)Nc1c4c(nc5c1CCC5)CCCC4)(C3)C2` [5b], the inhibition at 1 µM in data set [1] stood at 9.13 ± 0.48%; in data set [2] it was 18.6 ± 0.65%. For the same compound, the CC50 at 24 h came to 31 ± 2.76 µM in data set [3] and 19.5 ± 1.72 µM in data set [5]. In data set [4], this compound displayed a Papp of 7.63 ± 0.09 ×10⁻⁶ cm/s.

On to `CSc1ccc2nc(NCC(=O)Nc3c4c(nc5c3CCC5)CCCC4)sc2c1` [7l, N-{1H,2H,3H,5H,6H,7H,8H-cyclopenta[b]quinolin-9-yl}-2-{[6-(methylsulfanyl)-1,3-benzothiazol-2-yl]amino}acetamide], for which the inhibition at 1 µM in data set [1] came to 7.56 ± 0.38%; in data set [2] it was 6.05 ± 1.77%. Besides, the CC50 at 24 h in data set [3] is 173 ± 17.6 µM; in data set [5], at least 200 µM. Further, the Papp in data set [4] was 2.65 ± 0.01 ×10⁻⁶ cm/s.

In the case of `O=C(CNc1nc2ccc(Br)cc2s1)Nc1c2c(nc3c1CCC3)CCCC2` [7b, 2-[(6-bromo-1,3-benzothiazol-2-yl)amino]-N-{1H,2H,3H,5H,6H,7H,8H-cyclopenta[b]quinolin-9-yl}acetamide], the inhibition at 1 µM in data set [1] worked out at 18.5 ± 0.37%; in data set [2] it was 10.83 ± 0.09%. Further, the CC50 at 24 h in data set [3] and in data set [5] was at least 200 µM in each case. In data set [4], this compound gave an apparent permeability coefficient (Papp) of 3.74 ± 0.36 ×10⁻⁶ cm/s.

For the compound `O=C(CNc1nc2c(Br)cccc2s1)Nc1c2c(nc3c1CCC3)CCCC2` [7d, 2-[(4-bromo-1,3-benzothiazol-2-yl)amino]-N-{1H,2H,3H,5H,6H,7H,8H-cyclopenta[b]quinolin-9-yl}acetamide], the inhibition at 1 µM stood at 1.8 ± 0.33% in data set [1] and 6.73 ± 0.45% in data set [2]. In addition, the CC50 at 24 h stood at 111 ± 5.6 µM in data set [3] and 14.5 ± 1.84 µM in data set [5]. The same compound had a Papp in data set [4] of 2.62 ×10⁻⁶ cm/s.

In the case of `O=C(CNc1nc2cc(Cl)ccc2s1)Nc1c2c(nc3c1CCC3)CCCC2` [7g, 2-[(5-chloro-1,3-benzothiazol-2-yl)amino]-N-{1H,2H,3H,5H,6H,7H,8H-cyclopenta[b]quinolin-9-yl}acetamide], the inhibition at 1 µM came out at 11.9 ± 0.74% in data set [1] and 26.5 ± 1.45% in data set [2]. For the same compound, the CC50 at 24 h in data set [3] is 98.2 ± 5.74 µM; in data set [5] it was at least 200 µM. In data set [6], the IC50 – broadly, the concentration at which inhibition is half-maximal – stood at 11 ± 1.2 µM. The compound also returned a Papp in data set [4] of 2.8 ± 0.79 ×10⁻⁶ cm/s.

As for `O=C(CNc1nc2cc(Br)ccc2s1)Nc1c2c(nc3c1CCC3)CCCC2` [7c, 2-[(5-bromo-1,3-benzothiazol-2-yl)amino]-N-{1H,2H,3H,5H,6H,7H,8H-cyclopenta[b]quinolin-9-yl}acetamide], the results for the inhibition at 1 µM in data set [1] and in data set [2] were 15.7 ± 1.17% and 25 ± 2.39%, respectively. Besides, the results for the CC50 at 24 h in data set [3] and in data set [5] were 17.7 ± 2.34 µM and 21.61 ± 0.21 µM, respectively. Moreover, in data set [6], half-maximal inhibition (IC50) required 4.9 ± 0.4 µM. Besides, the Papp in data set [4] was determined as 2.13 ± 1.04 ×10⁻⁶ cm/s.

For the compound `O=C(CNc1nc2cccc([N+](=O)[O-])c2s1)Nc1c2c(nc3c1CCC3)CCCC2` [7k, N-{1H,2H,3H,5H,6H,7H,8H-cyclopenta[b]quinolin-9-yl}-2-[(7-nitro-1,3-benzothiazol-2-yl)amino]acetamide], the inhibition at 1 µM came to 9.62 ± 0.41% in data set [1] and 4.47 ± 0.58% in data set [2]. In addition, the CC50 at 24 h in data set [3] is 51 ± 8.56 µM; in data set [5], at least 200 µM. In data set [4], the Papp amounted to 1.12 ± 0.62 ×10⁻⁶ cm/s.
